Data taken from PubChem BioAssay (NCI).
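1) Cells in 96-well plates. 2) Compound, 48 h, 5 concentrations. 3) Linear interpolation between surrounding doses. 4) Unreached endpoint = highest concentration. GI50: concentration for 50% inhibition of growth. TGI: concentration producing complete growth inhibition.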

Assays:
Assay in all cases: NCI tumour cell line growth inhibition, 48 h
[1] = tested on: SR leukemia
[2] = tested on: RPMI-8226 leukemia
[3] = tested on: OVCAR-5 ovarian
[4] = tested on: ACHN renal
[5] = tested on: COLO 205 colon
[6] = tested on: SW-620 colon
[7] = tested on: PC-3 prostate
[8] = tested on: OVCAR-3 ovarian
[9] = tested on: HOP-62 NSCLC
[10] = tested on: SN12C renal
[11] = tested on: NCI-H23 lung
[12] = tested on: UACC-62 melanoma
[13] = tested on: U251 CNS
[14] = tested on: T-47D breast
[15] = tested on: NCI/ADR-RES ovarian
[16] = tested on: DU-145 prostate
[17] = tested on: NCI-H226 lung
[18] = tested on: SF-268 CNS
[19] = tested on: EKVX NSCLC
[20] = tested on: SNB-19 CNS
[21] = tested on: MCF7 breast
[22] = tested on: KM12 colon
[23] = tested on: MOLT-4 leukemia
[24] = tested on: OVCAR-8 ovarian
[25] = tested on: OVCAR-4 ovarian
[26] = tested on: IGROV1 ovarian
[27] = tested on: SK-MEL-5 melanoma
[28] = tested on: CAKI-1 renal
[29] = tested on: SK-OV-3 ovarian
[30] = tested on: K-562 leukemia
[31] = tested on: 786-0 renal
[32] = tested on: M14 melanoma
[33] = tested on: SNB-75 CNS
[34] = tested on: UACC-257 melanoma
[35] = tested on: TK-10 renal
[36] = tested on: HT29 colon
[37] = tested on: RXF 393 renal
[38] = tested on: HCC-2998 colon
[39] = tested on: A549 NSCLC
[40] = tested on: HCT-116 colon
[41] = tested on: CCRF-CEM leukemia
[42] = tested on: HL-60(TB) leukemia
[43] = tested on: NCI-H460 lung
[44] = tested on: BT-549 breast
[45] = tested on: HS 578T breast
[46] = tested on: SK-MEL-28 melanoma
[47] = tested on: MALME-3M melanoma
[48] = tested on: UO-31 renal
[49] = tested on: MDA-MB-231 breast
[50] = tested on: HCT-15 colon
[51] = tested on: SF-539 CNS
[52] = tested on: SK-MEL-2 melanoma
[53] = tested on: NCI-H522 lung
[54] = tested on: LOX IMVI melanoma
[55] = tested on: HOP-92 NSCLC
[56] = tested on: A498 renal
[57] = tested on: SF-295 CNS

COc1ccc([C@H]2[C@H](O)C(=O)N2c2cc(OC)c(OC)c(OC)c2)cc1O
GI50 [1]: < 12.4 nM | TGI [1]: > 100 µM | GI50 [2]: < 21.4 nM | TGI [2]: > 100 µM | GI50 [3]: 37.7 nM | TGI [3]: > 100 µM | GI50 [4]: < 18.1 nM | TGI [4]: > 100 µM | GI50 [5]: 238 nM | TGI [5]: 1210 nM | GI50 [6]: < 18.2 nM | TGI [6]: > 100 µM | GI50 [7]: < 19 nM | TGI [7]: > 100 µM | GI50 [8]: < 18 nM | GI50 [9]: < 22.4 nM | TGI [9]: > 100 µM | GI50 [10]: < 16.9 nM | TGI [10]: > 100 µM | GI50 [11]: 37.9 nM | TGI [11]: > 100 µM | GI50 [12]: < 23.2 nM | TGI [12]: > 100000 nM | GI50 [13]: 21.7 nM | TGI [13]: > 100 µM | GI50 [14]: > 100000 nM | TGI [14]: > 100 µM | GI50 [15]: 33.3 nM | TGI [15]: > 100000 nM | GI50 [16]: < 19.6 nM | TGI [16]: > 100 µM | GI50 [17]: < 10 nM | TGI [17]: 2270 nM | GI50 [18]: 30.6 nM | TGI [18]: > 100 µM | TGI [19]: > 100 µM | GI50 [20]: 48.5 nM | TGI [20]: > 100 µM | GI50 [21]: < 10 nM | TGI [21]: > 100000 nM | GI50 [22]: < 15.3 nM | TGI [22]: > 100 µM | GI50 [23]: < 19.2 nM | TGI [23]: > 100 µM | GI50 [24]: < 16.3 nM | GI50 [25]: 4780 nM | TGI [25]: > 100 µM | GI50 [26]: < 20.6 nM | TGI [26]: > 100 µM | GI50 [27]: < 15.5 nM | TGI [27]: 59.4 nM | GI50 [28]: < 15.3 nM | TGI [28]: > 100 µM | GI50 [29]: 33.2 nM | TGI [29]: > 100 µM | GI50 [30]: < 15.8 nM | TGI [30]: > 100 µM | GI50 [31]: < 20.8 nM | TGI [31]: > 100 µM | GI50 [32]: < 16.3 nM | TGI [32]: > 100 µM | GI50 [33]: 28.2 nM | TGI [33]: > 100 µM | TGI [34]: > 100 µM | GI50 [35]: > 100000 nM | TGI [35]: > 100 µM | GI50 [36]: 202 nM | TGI [36]: 1.76 µM | GI50 [37]: 60.2 nM | TGI [37]: > 100 µM | GI50 [38]: 39.1 nM | TGI [38]: > 100 µM | GI50 [39]: 32.1 nM | TGI [39]: > 100 µM | GI50 [40]: < 10 nM | TGI [40]: > 100 µM | GI50 [41]: < 16.7 nM | TGI [41]: > 100 µM | GI50 [42]: < 13.6 nM | GI50 [43]: < 18.3 nM | TGI [43]: > 100000 nM | GI50 [44]: < 15.1 nM | TGI [44]: 211 nM | GI50 [45]: 20 nM | TGI [45]: > 100 µM | GI50 [46]: 55.1 nM | TGI [46]: > 100 µM | GI50 [47]: < 28.4 nM | TGI [47]: > 100 µM | GI50 [48]: 50.3 nM | TGI [48]: > 100 µM | GI50 [49]: < 17.8 nM | TGI [49]: > 100 µM | GI50 [50]: 22.7 nM | TGI [50]: > 100 µM | GI50 [51]: < 10 nM | TGI [51]: 43.6 nM | GI50 [52]: 40 nM | TGI [52]: > 100 µM | GI50 [53]: < 10 nM | TGI [53]: < 14 nM | GI50 [54]: < 10 nM | TGI [54]: > 100 µM | GI50 [55]: 43.8 nM | TGI [55]: > 100 µM | GI50 [56]: > 100 µM | TGI [56]: > 100 µM | GI50 [57]: 33.7 nM | TGI [57]: > 100000 nM

O=C(N/N=C/c1ccc[nH]1)c1[nH]c2ccc(Br)cc2c1-c1ccccc1
GI50 [1]: 273 nM | GI50 [2]: 400 nM | TGI [2]: 10.7 µM | GI50 [3]: 489 nM | TGI [3]: 10.7 µM | GI50 [4]: 516 nM | TGI [4]: 5.88 µM | GI50 [5]: 298 nM | TGI [5]: 1320 nM | GI50 [6]: 378 nM | TGI [6]: 13.6 µM | GI50 [7]: 441 nM | TGI [7]: 8.15 µM | GI50 [8]: 477 nM | TGI [8]: 12.4 µM | GI50 [9]: 526 nM | TGI [9]: 8.93 µM | GI50 [10]: 410 nM | TGI [10]: 3.91 µM | GI50 [11]: 456 nM | TGI [11]: 11.3 µM | GI50 [12]: 191 nM | TGI [12]: 1760 nM | GI50 [13]: 349 nM | TGI [13]: 4.57 µM | GI50 [14]: 319 nM | TGI [14]: 7.25 µM | GI50 [15]: 316 nM | TGI [15]: 2190 nM | GI50 [16]: 489 nM | TGI [16]: 12.4 µM | GI50 [17]: 398 nM | TGI [17]: 2780 nM | GI50 [18]: 1570 nM | TGI [18]: 9.84 µM | GI50 [19]: 881 nM | TGI [19]: 9.16 µM | GI50 [20]: 423 nM | TGI [20]: 11.5 µM | GI50 [21]: 178 nM | TGI [21]: 2410 nM | GI50 [22]: 477 nM | TGI [22]: 6.08 µM | GI50 [23]: 437 nM | TGI [23]: 13.4 µM | GI50 [24]: 361 nM | TGI [24]: 3.42 µM | GI50 [25]: 954 nM | TGI [25]: 12.1 µM | GI50 [26]: 460 nM | TGI [26]: 4.1 µM | GI50 [27]: 344 nM | TGI [27]: 1600 nM | GI50 [28]: 362 nM | TGI [28]: 9.86 µM | GI50 [29]: 614 nM | TGI [29]: 9.89 µM | GI50 [30]: 253 nM | TGI [30]: 29.8 µM | GI50 [31]: 669 nM | TGI [31]: 7.37 µM | GI50 [32]: 322 nM | TGI [32]: 10.7 µM | GI50 [33]: 187 nM | TGI [33]: 3.83 µM | GI50 [34]: 688 nM | TGI [34]: 13.7 µM | GI50 [35]: 1710 nM | TGI [35]: 13.9 µM | GI50 [36]: 324 nM | TGI [36]: 4.31 µM | GI50 [37]: 339 nM | TGI [37]: 10.3 µM | GI50 [38]: 408 nM | TGI [38]: 4.81 µM | GI50 [39]: 345 nM | TGI [39]: 6.88 µM | GI50 [40]: 318 nM | TGI [40]: 11 µM | GI50 [41]: 385 nM | TGI [41]: 11.8 µM | GI50 [42]: 235 nM | TGI [42]: 619 nM | GI50 [43]: 338 nM | TGI [43]: 1230 nM | GI50 [44]: 416 nM | TGI [44]: 2420 nM | GI50 [45]: 380 nM | TGI [45]: 19.7 µM | GI50 [46]: 653 nM | TGI [46]: 16.1 µM | GI50 [47]: 410 nM | TGI [47]: 11.5 µM | GI50 [48]: 489 nM | TGI [48]: 5.74 µM | GI50 [49]: 572 nM | TGI [49]: 6.09 µM | GI50 [50]: 297 nM | TGI [50]: 10.9 µM | GI50 [51]: 219 nM | TGI [51]: 590 nM | GI50 [52]: 379 nM | TGI [52]: 13.9 µM | GI50 [53]: 92.7 nM | TGI [53]: 515 nM | GI50 [54]: 310 nM | TGI [54]: 4.97 µM | GI50 [55]: 1770 nM | TGI [55]: 9.77 µM | GI50 [56]: 6.36 µM | TGI [56]: 21.9 µM | GI50 [57]: 243 nM | TGI [57]: 1020 nM
